According to patent publication US20240116951A1, “HETEROCYCLIC COMPOUNDS AND USES THEREOF” (Kumquat Biosciences Inc., priority 2022, published 2024):

Experiments:
Assay type in all cases: binding
[1] = biological target: T1, KRAS G12S (Homo sapiens, UniProt P01116, G12S); assay: HTRF assay of K-Ras G12S interaction with SOS1 (PPI-HTRF); details: 5 nM KRAS G12S, read-out: PPI-HTRF-5 nM KRAS G12S
T1 construct: made in house; host or cells: E. coli, e.g. BL21 (DE3)
Summary of the method: (§1)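 HTRF readout of GST-tagged K-Ras (WT or mutant) binding to His-hSOS1, using anti-GST-Eu donor and anti-6His-XL665 acceptor in HEPES pH 7.4 buffer with DTT, BSA and Igepal. Read after about 10 min or longer; duplicate compound dilutions from 10 μM. IC50 from 665/620 nm ratio.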

[2] = biological target: T2, KRAS G12D (Homo sapiens, UniProt P01116, G12D); assay: HTRF assay of K-Ras G12D interaction with SOS1 (PPI-HTRF); details: HTRF, 5 nM KRAS G12D; read-out: PPI-HTRF-5 nM KRAS G12D
T2 construct: made in house; host or cells: E. coli, e.g. BL21 (DE3)
Summary of the method: as §1

[3] = biological target: T3, KRAS WT (Homo sapiens, UniProt P01116); assay: HTRF assay of wildtype K-Ras interaction with SOS1 (PPI-HTRF); details: HTRF, 5 nM KRAS WT; read-out: PPI-HTRF-5 nM KRAS WT
T3 construct: made in house; host or cells: E. coli, e.g. BL21 (DE3)
Summary of the method: as §1

T3 sequence (P01116 1-188 isoform P01116-2): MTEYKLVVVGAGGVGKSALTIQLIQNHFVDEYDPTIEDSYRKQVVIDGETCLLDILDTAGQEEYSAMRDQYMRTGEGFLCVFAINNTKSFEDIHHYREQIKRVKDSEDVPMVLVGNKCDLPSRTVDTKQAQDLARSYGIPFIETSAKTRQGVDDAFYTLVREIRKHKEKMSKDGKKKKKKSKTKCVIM
T1 sequence (P01116 1-188 isoform P01116-2 G12S): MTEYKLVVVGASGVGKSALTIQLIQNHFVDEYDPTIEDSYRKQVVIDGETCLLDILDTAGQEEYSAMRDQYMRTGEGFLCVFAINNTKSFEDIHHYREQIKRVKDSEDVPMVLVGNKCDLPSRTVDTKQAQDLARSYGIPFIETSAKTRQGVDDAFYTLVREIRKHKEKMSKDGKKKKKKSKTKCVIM
T2 sequence (P01116 1-188 isoform P01116-2 G12D): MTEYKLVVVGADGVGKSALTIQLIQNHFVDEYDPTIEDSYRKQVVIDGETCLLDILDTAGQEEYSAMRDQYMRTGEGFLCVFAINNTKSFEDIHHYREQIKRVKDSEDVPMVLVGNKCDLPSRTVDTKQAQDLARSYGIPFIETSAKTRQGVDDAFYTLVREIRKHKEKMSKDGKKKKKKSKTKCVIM

Question: Which results are given for `N#CCc1ncn(C(=O)N2CCC23CCN(c2nc(OC[C@@]45CCCN4C[C@H](F)C5)nc4c(F)c(-c5ccc(F)c6sc(N)c(C#N)c56)c(Cl)cc24)C3)n1` (stereo partly drawn) [Compound 320, 2-amino-4-(6-chloro-4-(1-(3-(cyanomethyl)-1H-1,2,4-triazole-1-carbonyl)-1,6-diazaspiro[3.4]octan-6-yl)-8-fluoro-2-(((2R,7aS)-2-fluorotetrahydro-1H-pyrrolizin-7a(5H)-yl)methoxy)quinazolin-7-yl)-7-fluorobenzo[b]thiophene-3-carbonitrile]?
Answer: IC50 [1]: < 5 µM; IC50 [2]: < 5 µM; IC50 [3]: < 5 µM

Question: How did the IC50 [1] turn out when `N#Cc1ncn(C(=O)N2CC[C@@]23CCN(c2nc(OC[C@@]45CCCN4C[C@H](F)C5)nc4c(F)c(-c5ccc(F)c6sc(N)c(C#N)c56)c(Cl)cc24)C3)n1` [Compound 321, 1-((4R)-6-(7-(2-amino-3-cyano-7-fluorobenzo[b]thiophen-4-yl)-6-chloro-8-fluoro-2-(((2R,7aS)-2-fluorotetrahydro-1H-pyrrolizin-7a(5H)-yl)methoxy)quinazolin-4-yl)-1,6-diazaspiro[3.4]octane-1-carbonyl)-1H-1,2,4-triazole-3-carbonitrile] was run?
Answer: < 5 µM

Question: And the IC50 [2]?
Answer: < 5 µM

Question: What about the IC50 [3] of the same compound?
Answer: < 5 µM

Question: `N#Cc1c(N)sc2c(F)ccc(-c3c(Cl)cc4c(N5CC[C@@]6(CCN6C(=O)n6cnc(CCl)n6)C5)nc(OC[C@@]56CCCN5C[C@H](F)C6)nc4c3F)c12` [Compound 322, 2-amino-4-(6-chloro-4-((R)-1-(3-(chloromethyl)-1H-1,2,4-triazole-1-carbonyl)-1,6-diazaspiro[3.4]octan-6-yl)-8-fluoro-2-(((2R,7aS)-2-fluorotetrahydro-1H-pyrrolizin-7a(5H)-yl)methoxy)quinazolin-7-yl)-7-fluorobenzo[b]thiophene-3-carbonitrile] was tested. Which IC50 [1] did it give?
Answer: < 5 µM

Question: And the IC50 [2]?
Answer: < 5 µM

Question: And the IC50 [3]?
Answer: < 5 µM

Question: `N#Cc1c(N)sc2c(F)ccc(-c3c(Cl)cc4c(N5CC6(CCN6C(=O)n6cnc(Cl)n6)CC5C(F)F)nc(OC[C@@]56CCCN5C[C@H](F)C6)nc4c3F)c12` (stereo partly drawn) [Compound 323, 2-amino-4-(6-chloro-4-(1-(3-chloro-1H-1,2,4-triazole-1-carbonyl)-7-(difluoromethyl)-1,6-diazaspiro[3.4]octan-6-yl)-8-fluoro-2-(((2R,7aS)-2-fluorotetrahydro-1H-pyrrolizin-7a(5H)-yl)methoxy)quinazolin-7-yl)-7-fluorobenzo[b]thiophene-3-carbonitrile] was tested. Which IC50 [1] did it give?
Answer: < 5 µM

Question: What about the IC50 [2] of the same compound?
Answer: > 5 µM

Question: What about the IC50 [3] of the same compound?
Answer: > 5 µM

Question: `C[C@H]1CN(C(=O)n2cncn2)[C@]12CCN(c1nc(OC[C@@]34CCCN3C[C@H](F)C4)nc3c(F)c(-c4ccc(F)c5sc(N)c(C#N)c45)c(Cl)cc13)C2` [Compound 324, 2-amino-4-(6-chloro-8-fluoro-2-(((2R,7aS)-2-fluorotetrahydro-1H-pyrrolizin-7a(5H)-yl)methoxy)-4-((3S,4R)-3-methyl-1-(1H-1,2,4-triazole-1-carbonyl)-1,6-diazaspiro[3.4]octan-6-yl)quinazolin-7-yl)-7-fluorobenzo[b]thiophene-3-carbonitrile] was tested. Which IC50 [1] did it give?
Answer: < 5 µM

Question: What about the IC50 [2] of the same compound?
Answer: < 5 µM

Question: What about the IC50 [3] of the same compound?
Answer: < 5 µM

Question: What does the source list for `C[C@H]1N(c2nc(OC[C@@]34CCCN3C[C@H](F)C4)nc3c(F)c(-c4ccc(F)c5sc(N)c(C#N)c45)c(Cl)cc23)CC[C@@]12CCN2C(=O)n1cnc(C(F)F)n1` [Compound 325, 2-amino-4-(6-chloro-4-((4R,5R)-1-(3-(difluoromethyl)-1H-1,2,4-triazole-1-carbonyl)-5-methyl-1,6-diazaspiro[3.4]octan-6-yl)-8-fluoro-2-(((2R,7aS)-2-fluorotetrahydro-1H-pyrrolizin-7a(5H)-yl)methoxy)quinazolin-7-yl)-7-fluorobenzo[b]thiophene-3-carbonitrile]?
Answer: IC50 [1]: < 5 µM; IC50 [2]: < 5 µM; IC50 [3]: < 5 µM

Question: What does the source list for `N#Cc1c(N)sc2c(F)ccc(-c3c(Cl)cc4c(N5CC6(CCN6C(=O)n6cncn6)CC5COC(F)F)nc(OC[C@@]56CCCN5C[C@H](F)C6)nc4c3F)c12` (stereo partly drawn) [Compound 326, 2-amino-4-(6-chloro-4-(7-((difluoromethoxy)methyl)-1-(1H-1,2,4-triazole-1-carbonyl)-1,6-diazaspiro[3.4]octan-6-yl)-8-fluoro-2-(((2R,7aS)-2-fluorotetrahydro-1H-pyrrolizin-7a(5H)-yl)methoxy)quinazolin-7-yl)-7-fluorobenzo[b]thiophene-3-carbonitrile]?
Answer: IC50 [1]: < 5 µM; IC50 [2]: < 5 µM; IC50 [3]: < 5 µM

Question: Which results are given for `N#CCC1CN(c2nc(OC[C@@]34CCCN3C[C@H](F)C4)nc3c(F)c(-c4ccc(F)c5sc(N)c(C#N)c45)c(Cl)cc23)CC12CCN2C(=O)n1cnc(Cl)n1` (stereo partly drawn) [Compound 328, 2-amino-4-(6-chloro-4-(1-(3-chloro-1H-1,2,4-triazole-1-carbonyl)-8-(cyanomethyl)-1,6-diazaspiro[3.4]octan-6-yl)-8-fluoro-2-(((2R,7aS)-2-fluorotetrahydro-1H-pyrrolizin-7a(5H)-yl)methoxy)quinazolin-7-yl)-7-fluorobenzo[b]thiophene-3-carbonitrile]?
Answer: IC50 [1]: < 5 µM; IC50 [2]: < 5 µM; IC50 [3]: < 5 µM

Question: What does the source list for `N#CCC1CN(c2nc(OC[C@@]34CCCN3C[C@H](F)C4)nc3c(F)c(-c4ccc(F)c5sc(N)c(C#N)c45)c(Cl)cc23)CC12CCN2C(=O)n1cnc(C(F)F)n1` (stereo partly drawn) [Compound 329, 2-amino-4-(6-chloro-4-(8-(cyanomethyl)-1-(3-(difluoromethyl)-1H-1,2,4-triazole-1-carbonyl)-1,6-diazaspiro[3.4]octan-6-yl)-8-fluoro-2-(((2R,7aS)-2-fluorotetrahydro-1H-pyrrolizin-7a(5H)-yl)methoxy)quinazolin-7-yl)-7-fluorobenzo[b]thiophene-3-carbonitrile]?
Answer: IC50 [1]: < 5 µM; IC50 [2]: < 5 µM; IC50 [3]: < 5 µM

Question: Which IC50 [1] does the source give for `N#Cc1c(N)sc2c(F)ccc(-c3c(Cl)cc4c(N5CC[C@@]6(CCN6)C5)nc(OC[C@@]56CCCN5C[C@H](F)C6)nc4c3F)c12` [Compound 331, 2-amino-4-(6-chloro-8-fluoro-2-(((2R,7aS)-2-fluorotetrahydro-1H-pyrrolizin-7a(5H)-yl)methoxy)-4-((S)-1,6-diazaspiro[3.4]octan-6-yl)quinazolin-7-yl)-7-fluorobenzo[b]thiophene-3-carbonitrile] here?
Answer: < 5 µM

Question: What about the IC50 [2] of the same compound?
Answer: < 5 µM

Question: And the IC50 [3]?
Answer: < 5 µM

Question: Which results are given for `N#Cc1c(N)sc2c(F)ccc(-c3c(F)c4nc(OC[C@@]56CCCN5C[C@H](F)C6)nc(N5CCC6(CCN6)C5)c4c(=O)n3C3CC3)c12` (stereo partly drawn) [Compound 333, 2-amino-4-(6-cyclopropyl-8-fluoro-2-(((2R,7aS)-2-fluorotetrahydro-1H-pyrrolizin-7a(5H)-yl)methoxy)-5-oxo-4-(1,6-diazaspiro[3.4]octan-6-yl)-5,6-dihydropyrido[4,3-d]pyrimidin-7-yl)-7-fluorobenzo[b]thiophene-3-carbonitrile]?
Answer: IC50 [1]: < 5 µM; IC50 [2]: < 5 µM; IC50 [3]: < 5 µM

Question: What does the source list for `C[C@H]1CN[C@]12CCN(c1nc(OC[C@@]34CCCN3C[C@H](F)C4)nc3c(F)c(-c4ccc(F)c5sc(N)c(C#N)c45)c(Cl)cc13)C2` [Compound 334, 2-amino-4-(6-chloro-8-fluoro-2-(((2R,7aS)-2-fluorotetrahydro-1H-pyrrolizin-7a(5H)-yl)methoxy)-4-((3S,4R)-3-methyl-1,6-diazaspiro[3.4]octan-6-yl)quinazolin-7-yl)-7-fluorobenzo[b]thiophene-3-carbonitrile]?
Answer: IC50 [1]: < 5 µM; IC50 [2]: < 5 µM; IC50 [3]: < 5 µM

Question: With `C[C@@H]1C[C@@]2(CCN2)CN1c1nc(OC[C@@]23CCCN2C[C@H](F)C3)nc2c(F)c(-c3ccc(F)c4sc(N)c(C#N)c34)c(Cl)cc12` [Compound 335, 2-amino-4-(6-chloro-8-fluoro-2-(((2R,7aS)-2-fluorotetrahydro-1H-pyrrolizin-7a(5H)-yl)methoxy)-4-((4S,7R)-7-methyl-1,6-diazaspiro[3.4]octan-6-yl)quinazolin-7-yl)-7-fluorobenzo[b]thiophene-3-carbonitrile] as the compound, how does the IC50 [1] read?
Answer: < 5 µM

Question: What about the IC50 [2] of the same compound?
Answer: < 5 µM

Question: What about the IC50 [3] of the same compound?
Answer: < 5 µM

Question: For `Cc1cn(C(=O)N2CCC23CCN(c2nc(OC[C@@]45CCCN4C[C@H](F)C5)nc4c(F)c(-c5ccc(F)c6sc(N)c(C#N)c56)c(Cl)cc24)C3)nn1` (stereo partly drawn) [Compound 336, 2-amino-4-(6-chloro-8-fluoro-2-(((2R,7aS)-2-fluorotetrahydro-1H-pyrrolizin-7a(5H)-yl)methoxy)-4-(1-(4-methyl-1H-1,2,3-triazole-1-carbonyl)-1,6-diazaspiro[3.4]octan-6-yl)quinazolin-7-yl)-7-fluorobenzo[b]thiophene-3-carbonitrile], which IC50 [1] is on record?
Answer: < 5 µM

Question: What about the IC50 [2] of the same compound?
Answer: < 5 µM

Question: And the IC50 [3]?
Answer: < 5 µM

Question: `Cc1nc(C(C)C)nn1C(=O)N1CCOCC12CCN(c1nc(OC[C@@]34CCCN3C[C@H](F)C4)nc3c(F)c(-c4ccc(F)c5sc(N)c(C#N)c45)c(Cl)cc13)C2` (stereo partly drawn) [Compound 337, 2-Amino-4-(6-chloro-8-fluoro-2-(((2R,7aS)-2-fluorotetrahydro-1H-pyrrolizin-7a(5H)-yl)methoxy)-4-(6-(3-isopropyl-5-methyl-1H-1,2,4-triazole-1-carbonyl)-9-oxa-2,6-diazaspiro[4.5]decan-2-yl)quinazolin-7-yl)-7-fluorobenzo[b]thiophene-3-carbonitrile] was tested. Which IC50 [1] did it give?
Answer: < 5 µM

Question: And the IC50 [2]?
Answer: < 5 µM

Question: What about the IC50 [3] of the same compound?
Answer: < 5 µM
